Data as given in patent US20240409556A1, “BENZOPIPERAZINE AND RELATED ANALOGS FOR INHIBITING YAP/TAZ-TEAD” (Springworks Therapeutics, Inc., priority 2023, published 2024).

Experiments:
Format in all cases: cell-based
[1] = tested on: NCI-H2052 mesothelioma cell line; test: Mesothelioma cell line proliferation assay, NCI-H2052 (ATPlite); details: NCI-H2052 cells, 6 days with compound, cell viability by ATPlite
Experimental: (§1) Example 57: Activity of Compounds of the Disclosure in Mesothelioma Cell Line Proliferation Assays
(§2) Mesothelioma cell lines, NCI-H226 and NCI-H2052 (both sourced from the ATCC cell culture collection) were plated in 96-well plates (Corning® 96 Well White Polystyrene Microplate clear flat bottom, white polystyrene (TC-Treated)), at 1500 cells/well in full medium (RPMI 1640 ATCC modification with L-glutamine, HEPES, Phenol Red, Sodium Pyruvate, High glucose, Low sodium bicarbonate and 10% fetal bovine serum). Cells were incubated overnight at 37° C. in an incubator with 5% CO2. Then compounds, dissolved in DMSO, were added in dose-response. Cells were incubated with compound dilutions for another 6 days at 37° C. in an incubator with 5% CO2. Cell viability was quantitated using the ATPlite kit (Perkin-Elmer) and the luminescence was read-out using an Envision instrument (Perkin-Elmer). The amount of relative light units produced using the ATPlite kit was used to calculate percent of inhibition.
(§3) The activities of some example compounds are depicted in Table 4. The activity ranges A, B and C refer to EC50 values in the mesothelioma cell line proliferation assay as described as follows: “A”: EC50<1 μM; “B”: 1 μM≤EC50≤10 μM and “C”: EC50>10 μM; NT: not tested.

[2] = tested on: YAP/TAZ-TEAD transcription; test: Reporter gene assay for measuring the inhibition of YAP/TAZ-TEAD transcription (TEAD-responsive element luciferase reporter in Hek293T cells); details: 24 hours incubation
Method in brief: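 HEK293T cells transiently transfected with a TEAD-responsive luciferase reporter were exposed to compounds for 24 h at 37° C/5% CO2, then luminescence was read. Percent inhibition normalised to vehicle (0%) and positive-control inhibitor (100%); IC50 derived.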

[3] = tested on: NCI-H226 mesothelioma cell line; test: Mesothelioma cell line proliferation assay, NCI-H226 (ATPlite); details: NCI-H226 cells, 6 days with compound, cell viability by ATPlite
Experimental: as §1, §2, §3

## C=CC(=O)N1CCN2c3ccccc3N(c3ccc(C(F)(F)F)cc3)CC2C1 (single isomer, unassigned) [14-En1, (R)- or (S)-1-(6-(4-(trifluoromethyl)phenyl)-1,2,4,4a,5,6-hexahydro-3H-pyrazino[1,2-a]quinoxalin-3-yl)prop-2-en-1-one]
[1]; Homo sapiens, 144 h
  EC50: < 1000 nM
[2]
  IC50: < 1000 nM
[3]; Homo sapiens, 144 h
  EC50: < 1000 nM

## CNS(=O)(=O)N1CCN2c3ccccc3N(c3ccc(C(F)(F)F)cc3)CC2C1 (single isomer, unassigned) [32-En2, (R)- or (S)-N-methyl-6-(4-(trifluoromethyl)phenyl)-1,2,4,4a,5,6-hexahydro-3H-pyrazino[1,2-a]quinoxaline-3-sulfonamide]
[2]
  IC50: < 1000 nM
[3]
  EC50: < 1000 nM

## CC(=O)NCC1CN(c2ccc(C(F)(F)F)cc2)c2ccccc2N1 (single isomer, unassigned) [34-En2, (R)- or (S)-N-((4-(4-(trifluoromethyl)phenyl)-1,2,3,4-tetrahydroquinoxalin-2-yl)methyl)acetamide]
[2]; Homo sapiens, HEK-293T, 24 h
  IC50: < 1000 nM
[3]
  EC50: < 1000 nM

## CC(=O)NCC1CN(c2ccc(C(F)(F)F)cc2)c2ccccc2O1 (single isomer, unassigned) [36-En1, (R)- or (S)-N-((4-(4-(trifluoromethyl)phenyl)-3,4-dihydro-2H-benzo[b][1,4]oxazin-2-yl)methyl)acetamide]
[2]
  IC50: < 1000 nM
[3]
  EC50: < 1000 nM

## C=CC(=O)N1CCN2c3nccnc3N(c3ccc(C(F)(F)F)cc3)CC2C1 (centres unmarked) [41-En1, 1-(5-(4-(trifluoromethyl)phenyl)-5,6,6a,7,9,10-hexahydro-8H-dipyrazino[1,2-a:2′,3′-e]pyrazin-8-yl)prop-2-en-1-one]
[1]; Homo sapiens, 144 h
  EC50: < 1000 nM
[3]; Homo sapiens, 144 h
  EC50: < 1000 nM

## C=CC(=O)N1CCN2c3nccnc3N(c3ccc(C(F)(F)F)cc3)CC2C1 (centres unmarked) [41-En2, 1-(5-(4-(trifluoromethyl)phenyl)-5,6,6a,7,9,10-hexahydro-8H-dipyrazino[1,2-a:2′,3′-e]pyrazin-8-yl)prop-2-en-1-one]
[1]
  EC50: < 1000 nM
[3]
  EC50: < 1000 nM

## C=CC(=O)NCC1CN(c2ccc(C(F)(F)F)cc2)c2cccnc2O1 (centres unmarked) [48-En1, N-((1-(4-(trifluoromethyl)phenyl)-2,3-dihydro-1H-pyrido[2,3-b][1,4]oxazin-3-yl)methyl)acrylamide]
[1]; Homo sapiens, 144 h
  EC50: < 1000 nM
[3]; Homo sapiens, 144 h
  EC50: < 1000 nM

## C=CC(=O)NCC1CN(c2ccc(C(F)(F)F)cc2)c2cccnc2O1 (centres unmarked) [48-En2, N-((1-(4-(trifluoromethyl)phenyl)-2,3-dihydro-1H-pyrido[2,3-b][1,4]oxazin-3-yl)methyl)acrylamide]
[1]
  EC50: < 1000 nM
[3]
  EC50: < 1000 nM

## O=C(O)C1CCN2c3ccccc3N(c3ccc(C(F)(F)F)cc3)CC2C1 (stereo not drawn) [65B, (cis)- or (trans)-5-(4-(trifluoromethyl)phenyl)-6,6a,7,8,9,10-hexahydro-5H-pyrido[1,2-a]quinoxaline-8-carboxylic acid]
[1]; Homo sapiens, 144 h
  EC50: < 1000 nM
[3]; Homo sapiens, 144 h
  EC50: < 1000 nM

## O=C(O)C1CCN2c3ncccc3N(c3ccc(C(F)(F)F)cc3)CC2C1 [96B-En1, (6aS,8S)- or (6aR,8S)- or (6aR,8R)- or (6aS,8R)-5-(4-(trifluoromethyl)phenyl)-6,6a,7,8,9,10-hexahydro-5H-dipyrido[1,2-a:3′,2′-e]pyrazine-8-carboxylic acid]
[1]; Homo sapiens, 144 h
  EC50: < 1000 nM
[3]; Homo sapiens, 144 h
  EC50: < 1000 nM

## C=CC(=O)N1CCN2c3ccccc3N(c3ccc(C(F)(F)F)cc3)CC2C1 (centres unmarked) [compound 14, 1-(6-(4-(trifluoromethyl)phenyl)-1,2,4,4a,5,6-hexahydro-3H-pyrazino[1,2-a]quinoxalin-3-yl)prop-2-en-1-one]
[2]; Homo sapiens, HEK-293T, 24 h
  IC50: < 1000 nM
[3]
  EC50: < 1000 nM

## O=C(CO)N[C@@H]1C[C@@H]2CN(c3ccc(C(F)(F)F)cc3)c3cccnc3N2C1 [compound 95, 2-hydroxy-N-((6aR,8R)-5-(4-(trifluoromethyl)phenyl)-5,6,6a,7,8,9-hexahydropyrido[3,2-e]pyrrolo[1,2-a]pyrazin-8-yl)acetamide]
[2]; Homo sapiens, HEK-293T, 24 h
  IC50: < 1000 nM

## NCC(=O)N[C@@H]1C[C@@H]2CN(c3ccc(C(F)(F)F)cc3)c3cccnc3N2C1 [compound 97, 2-amino-N-((6aR,8R)-5-(4-(trifluoromethyl)phenyl)-5,6,6a,7,8,9-hexahydropyrido[3,2-e]pyrrolo[1,2-a]pyrazin-8-yl)acetamide]
[2]; Homo sapiens, HEK-293T, 24 h
  IC50: < 1000 nM

## CC(=O)N[C@@H]1C[C@@H]2CN(c3ccc(C(F)(F)F)cc3)c3cc(Cl)cnc3N2C1 [compound 98, N-((6aR,8R)-3-chloro-5-(4-(trifluoromethyl)phenyl)-5,6,6a,7,8,9-hexahydropyrido[3,2-e]pyrrolo[1,2-a]pyrazin-8-yl)acetamide]
[2]; Homo sapiens, HEK-293T, 24 h
  IC50: < 1000 nM

## N#C[C@@H]1C[C@@H]2CN(c3ccc(C(F)(F)F)cc3)c3cccnc3N2C1 [compound 103, (6aR,8R)-5-(4-(trifluoromethyl)phenyl)-5,6,6a,7,8,9-hexahydropyrido[3,2-e]pyrrolo[1,2-a]pyrazine-8-carbonitrile]
[2]; Homo sapiens, HEK-293T, 24 h
  IC50: > 10000 nM

## O=C(O)C1CCN2c3ccc(Cl)cc3N(c3ccc(C(F)(F)F)cc3)CC2C1 (stereo not drawn) [compound 104, (cis)- or (trans)-3-chloro-5-(4-(trifluoromethyl)phenyl)-6,6a,7,8,9,10-hexahydro-5H-pyrido[1,2-a]quinoxaline-8-carboxylic acid]
[2]; Homo sapiens, HEK-293T, 24 h
  IC50: 1000 to 10000 nM

## O=C(O)C1CCN2c3c(Cl)cccc3N(c3ccc(C(F)(F)F)cc3)CC2C1 (stereo not drawn) [compound 105, (cis)- or (trans)-1-chloro-5-(4-(trifluoromethyl)phenyl)-6,6a,7,8,9,10-hexahydro-5H-pyrido[1,2-a]quinoxaline-8-carboxylic acid]
[2]; Homo sapiens, HEK-293T, 24 h
  IC50: < 1000 nM

## O=C(O)C1CCN2c3cc(Cl)ccc3N(c3ccc(C(F)(F)F)cc3)CC2C1 (stereo not drawn) [compound 106, (cis)- or (trans)-2-chloro-5-(4-(trifluoromethyl)phenyl)-6,6a,7,8,9,10-hexahydro-5H-pyrido[1,2-a]quinoxaline-8-carboxylic acid]
[2]; Homo sapiens, HEK-293T, 24 h
  IC50: < 1000 nM

## CC(=O)NCC1CN(c2ccc(C(F)(F)F)cc2)c2ccc(OC(F)F)nc2O1 (centres unmarked) [compound 108, N-((6-(difluoromethoxy)-1-(4-(trifluoromethyl)phenyl)-2,3-dihydro-1H-pyrido[2,3-b][1,4]oxazin-3-yl)methyl)acetamide]
[2]; Homo sapiens, HEK-293T, 24 h
  IC50: 1000 to 10000 nM

## CC(C)(O)C(=O)N[C@@H]1C[C@@H]2CN(c3ccc(C(F)(F)F)cc3)c3cccnc3N2C1 [compound 110, 2-hydroxy-2-methyl-N-((6aR,8R)-5-(4-(trifluoromethyl)phenyl)-5,6,6a,7,8,9-hexahydropyrido[3,2-e]pyrrolo[1,2-a]pyrazin-8-yl)propanamide]
[2]; Homo sapiens, HEK-293T, 24 h
  IC50: < 1000 nM

## O=C(O)C1CCN(c2ccccc2Nc2ccc(C(F)(F)F)cc2)CC1 [compound 111, 1-(2-((4-(trifluoromethyl)phenyl)amino)phenyl)piperidine-4-carboxylic acid]
[2]; Homo sapiens, HEK-293T, 24 h
  IC50: < 1000 nM

## CC(=O)NCC1CN(c2ccc(C(F)(F)F)cc2)c2ccc(C(F)F)nc2O1 (centres unmarked) [compound 112, N-((6-(difluoromethyl)-1-(4-(trifluoromethyl)phenyl)-2,3-dihydro-1H-pyrido[2,3-b][1,4]oxazin-3-yl)methyl)acetamide]
[2]; Homo sapiens, HEK-293T, 24 h
  IC50: < 1000 nM

## O=C(O)[C@H]1C[C@@H]2CN(c3ccc(C(F)(F)F)cc3)c3cccnc3N2C1 [compound 113, (6aR,8S)-5-(4-(trifluoromethyl)phenyl)-5,6,6a,7,8,9-hexahydropyrido[3,2-e]pyrrolo[1,2-a]pyrazine-8-carboxylic acid]
[2]; Homo sapiens, HEK-293T, 24 h
  IC50: 1000 to 10000 nM

## CC1(C(=O)O)CCN2c3ccccc3N(c3ccc(C(F)(F)F)cc3)CC2C1 (stereo not drawn) [compound 114, (cis)- or (trans)-8-methyl-5-(4-(trifluoromethyl)phenyl)-6,6a,7,8,9,10-hexahydro-5H-pyrido[1,2-a]quinoxaline-8-carboxylic acid]
[2]; Homo sapiens, HEK-293T, 24 h
  IC50: < 1000 nM

## CN(c1ccc(C(F)(F)F)cc1)c1ccccc1N1CCC(C(=O)O)CC1 [compound 118, 1-(2-(methyl(4-(trifluoromethyl)phenyl)amino)phenyl)piperidine-4-carboxylic acid]
[2]; Homo sapiens, HEK-293T, 24 h
  IC50: 1000 to 10000 nM

## O=C(O)C1CCN(c2ccccc2Nc2ccc(C(F)(F)F)cc2)C(=O)C1 (centres unmarked) [compound 119, 2-oxo-1-(2-((4-(trifluoromethyl)phenyl)amino)phenyl)piperidine-4-carboxylic acid]
[2]; Homo sapiens, HEK-293T, 24 h
  IC50: > 10000 nM

## O=C(O)C1CCN(c2ccccc2Oc2ccc(C(F)(F)F)cc2)CC1 [compound 120, 1-(2-(4-(trifluoromethyl)phenoxy)phenyl)piperidine-4-carboxylic acid]
[2]; Homo sapiens, HEK-293T, 24 h
  IC50: < 1000 nM

## O=C(O)C1CCN(c2ncccc2Nc2ccc(C(F)(F)F)cc2)CC1 [compound 124, 1-(3-((4-(trifluoromethyl)phenyl)amino)pyridin-2-yl)piperidine-4-carboxylic acid]
[2]; Homo sapiens, HEK-293T, 24 h
  IC50: < 1000 nM

## Cc1ccc(Nc2ccc(C(F)(F)F)cc2)c(N2CCC(C(=O)O)CC2)n1 [compound 125, 1-(6-methyl-3-((4-(trifluoromethyl)phenyl)amino)pyridin-2-yl)piperidine-4-carboxylic acid]
[2]; Homo sapiens, HEK-293T, 24 h
  IC50: < 1000 nM
